Laboratory results: PubChem BioAssay (NCI)
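Each compound was tested at five concentrations against cells in 96-well plates for 48 hours. GI50 is the concentration that inhibits growth by half. Definition used: TGI = concentration required for complete inhibition of growth.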

Each compound was assayed on SF-268 CNS (assay: inhibition of tumour cell growth, NCI panel, 48 h).

Row | Structure (SMILES) | TGI [µM]
1 | C#CCOCn1cnc2ncnc(N)c21 | > 100
2 | Cc1noc(/N=C2\C=C(Nc3onc(C)c3C)C(=O)c3ccccc32)c1C | > 100

What follows are compounds tested on SF-539 CNS (assay: inhibition of tumour cell growth, NCI panel, 48 h).

Row | Structure (SMILES) | GI50 [µM] | TGI [µM]
3 | CN1CCN(c2ccc3nc(-c4ccc(OCCCCN5CCN(CCCCN6C(=O)c7cccc8cccc(c78)C6=O)CC5)cc4)[nH]c3c2)CC1 | 33.5 | > 100
4 | CC1=C(N2CC2)C(=O)c2ccccc2C1=O | – | 5.91
5 | O=S1(=O)c2ccccc2N=C(c2ccccc2Cl)CC1c1ccc(F)cc1 (stereo unspecified) | – | 35.7
6 | CC1=CC(=O)NP(=O)(C23CC4CC(CC(C4)C2)C3)N1 (stereo unspecified) | – | > 100
7 | Oc1ccc(Cl)cc1/C=N\NC(=S)N/N=C/c1cc(Cl)ccc1O | 2.8 | 90.8
8 | O=c1[nH]cc(C(F)(C(F)(F)F)C(F)(F)F)c(=O)[nH]1 | – | > 100
9 | COc1ccc2c(c1)c1c3n2CCNN=C3CCC1 | – | > 100
10 | CC(=O)[C-](C(C)=O)c1ccccc1.CC(=O)[C-](C(C)=O)c1ccccc1.CC(=O)[C-](C(C)=O)c1ccccc1.[Cl-].[Zr+4] | 86.7 | > 100
11 | O=Cc1ccc(N2CCN(c3ccc(C=O)cc3)CC2)cc1 | > 100 | > 100
12 | CC(C)N1C(C)[C@@H](c2ccccc2)O[P@]1(=O)CC1=CCCCC1 (stereo partly specified) | – | > 100
13 | Cc1cc(Nc2nc(-c3ccncc3)nc3ccccc23)n[nH]1 | 3.83 | > 100
14 | COC(=O)C(=O)C(C(=O)C(=O)Nc1cc(Cl)c(Cl)cc1Cl)c1nc2ccc([N+](=O)[O-])cc2[nH]c1=O (stereo unspecified) | – | > 100
15 | COc1ccc(NC(=O)C2C(=O)N(c3ccc(OC)cc3)C(=O)/C2=N\NC(N)=O)cc1 (stereo unspecified) | – | 30.8
16 | C/C(=N\NS(=O)(=O)c1ccc([N+](=O)[O-])cc1)c1ccc[n+]([O-])n1 | – | 4.94
17 | S=c1c2ccccc2c(=S)n2n1CC=CC2 | – | > 100
18 | CC(C)(C)Sc1nnc(SC(C)(C)C)c2c(=O)[nH]nc(SC(C)(C)C)c12 | – | 22.6
19 | CCCCNC1=C(C(=O)OCC)/C(=N/NC(=O)c2ccccc2O)CO1 | – | > 100
20 | N#CC(C(=O)CCCC(=O)Nc1ccc(Cl)cc1Cl)c1ccc(Cl)cc1 (stereo unspecified) | – | > 100
21 | Cc1ccc(-c2n[nH]c(=O)c3noc(-c4ccc(C)cc4)c23)cc1 | 0.787 | 4.14
22 | Nc1ccn(C2OC(C(OC3OC(CO)C(O)C(N)C3O)C(O)C(O)C(O)C(O)CO)C(N)C(O)C2O)c(=O)n1 (stereo unspecified) | – | 78.6

Row | Structure (SMILES) | GI50 [µM] | TGI [µM]
23 | COc1ccc(C)cc1C1CCC(=O)O1 (stereo unspecified) | – | > 100
24 | Cc1ccc2nc(NC(=O)C(=O)CC(=O)c3cccc4ccccc34)sc2c1 | – | 61.6
25 | Nc1c(C(=O)Nc2cccc3ccccc23)sc2nc3c(cc12)C(=O)CCC3 | 0.152 | 0.456
26 | O=C1CCC(=O)c2sccc2N1 | – | > 100
27 | CCCCCCCCCCCCCCCCCC(=O)NCC(COP(=O)(O)O)OCC (stereo unspecified) | – | > 100
28 | Cn1nc(-c2ccccc2)c(C(=O)/C=C/c2ccc(Cl)cc2)c(N2CCCC2)c1=O | – | 13.2
29 | Cc1cc2nc(-c3c(F)cccc3Cl)n(Cc3c(F)cccc3Cl)c2cc1C | 17.3 | 34.8
30 | CCOC(=O)c1c(C)n(Cc2ccccc2)c2c1cc1oc(=O)c(=O)n3cnc2c13 | 14.5 | 37.8
31 | O=C1C=Cc2ncccc2C1=O | – | 40.5
32 | C/C(CC(=O)Nc1cccc([N+](=O)[O-])c1)=N\NC(=O)CC#N | – | > 100
33 | [CH3][Sn]1([CH3])[O]CC(COc2cc(Cl)c(Cl)cc2Cl)[O]1 (stereo unspecified) | 24.7 | > 100
34 | O=C(/C=C/c1ccccc1)CCC1C(=O)NC(=S)NC1=O | – | > 100
35 | CCc1cc(Cc2ccc(C)c(NC(=O)C(=O)C3C(=O)NC(=O)NC3=O)c2CC)cc(C)c1NC(=O)C(=O)C1C(=O)NC(=O)NC1=O | – | > 100
36 | CC(=O)OC(=O)O/C=C\CCl | – | > 100
37 | CC(=O)c1c2c(cc3c1CC1(C3)Cc3cc4c(c(C(=O)O)c3C1)CCC4)CCC2 (stereo unspecified) | – | 59.6
38 | C/C(=N/O)c1ccc(Nc2cc(-n3ccnc3)c3ccccc3n2)cc1 | 11.5 | > 100
39 | Cc1ccc(/C=N/NS(=O)(=O)c2ccccc2)c(C)c1 | – | > 100
40 | C#CCOCn1cnc2ncnc(N)c21 | – | > 100
41 | Cc1noc(/N=C2\C=C(Nc3onc(C)c3C)C(=O)c3ccccc32)c1C | – | > 100

Each compound was assayed on SN12C renal (assay: inhibition of tumour cell growth, NCI panel, 48 h).

Row | Structure (SMILES) | TGI [µM] | GI50 [µM]
42 | CC1=C(N2CC2)C(=O)c2ccccc2C1=O | 2.09 | –
43 | O=S1(=O)c2ccccc2N=C(c2ccccc2Cl)CC1c1ccc(F)cc1 (stereo unspecified) | 29.1 | –
44 | CC1=CC(=O)NP(=O)(C23CC4CC(CC(C4)C2)C3)N1 (stereo unspecified) | > 100 | –
45 | Oc1ccc(Cl)cc1/C=N\NC(=S)N/N=C/c1cc(Cl)ccc1O | 64.7 | 3.12
46 | O=c1[nH]cc(C(F)(C(F)(F)F)C(F)(F)F)c(=O)[nH]1 | > 100 | –
47 | COc1ccc2c(c1)c1c3n2CCNN=C3CCC1 | > 100 | –
48 | CC(=O)[C-](C(C)=O)c1ccccc1.CC(=O)[C-](C(C)=O)c1ccccc1.CC(=O)[C-](C(C)=O)c1ccccc1.[Cl-].[Zr+4] | > 100 | > 100
49 | O=Cc1ccc(N2CCN(c3ccc(C=O)cc3)CC2)cc1 | > 100 | > 100
50 | CC(C)N1C(C)[C@@H](c2ccccc2)O[P@]1(=O)CC1=CCCCC1 (stereo partly specified) | > 100 | –
51 | Cc1cc(Nc2nc(-c3ccncc3)nc3ccccc23)n[nH]1 | > 100 | 4.55
52 | COC(=O)C(=O)C(C(=O)C(=O)Nc1cc(Cl)c(Cl)cc1Cl)c1nc2ccc([N+](=O)[O-])cc2[nH]c1=O (stereo unspecified) | > 100 | –
53 | COc1ccc(NC(=O)C2C(=O)N(c3ccc(OC)cc3)C(=O)/C2=N\NC(N)=O)cc1 (stereo unspecified) | > 100 | –
54 | C/C(=N\NS(=O)(=O)c1ccc([N+](=O)[O-])cc1)c1ccc[n+]([O-])n1 | 12 | –
55 | S=c1c2ccccc2c(=S)n2n1CC=CC2 | > 100 | –
56 | CC(C)(C)Sc1nnc(SC(C)(C)C)c2c(=O)[nH]nc(SC(C)(C)C)c12 | 21.9 | –
57 | CCCCNC1=C(C(=O)OCC)/C(=N/NC(=O)c2ccccc2O)CO1 | > 100 | –
58 | N#CC(C(=O)CCCC(=O)Nc1ccc(Cl)cc1Cl)c1ccc(Cl)cc1 (stereo unspecified) | > 100 | –
59 | Cc1ccc(-c2n[nH]c(=O)c3noc(-c4ccc(C)cc4)c23)cc1 | > 100 | 1.4
60 | O=CCCCC(Sc1ccccc1)Sc1ccccc1 | 56.7 | –

Row | Structure (SMILES) | TGI [µM] | GI50 [µM]
61 | Nc1ccn(C2OC(C(OC3OC(CO)C(O)C(N)C3O)C(O)C(O)C(O)C(O)CO)C(N)C(O)C2O)c(=O)n1 (stereo unspecified) | > 100 | –
62 | COc1ccc(C)cc1C1CCC(=O)O1 (stereo unspecified) | > 100 | –
63 | Cc1ccc2nc(NC(=O)C(=O)CC(=O)c3cccc4ccccc34)sc2c1 | > 100 | –
64 | Nc1c(C(=O)Nc2cccc3ccccc23)sc2nc3c(cc12)C(=O)CCC3 | > 100 | 0.539
65 | O=C1CCC(=O)c2sccc2N1 | > 100 | –
66 | CCCCCCCCCCCCCCCCCC(=O)NCC(COP(=O)(O)O)OCC (stereo unspecified) | 46.4 | –
67 | Cn1nc(-c2ccccc2)c(C(=O)/C=C/c2ccc(Cl)cc2)c(N2CCCC2)c1=O | 54 | –
68 | Cc1cc2nc(-c3c(F)cccc3Cl)n(Cc3c(F)cccc3Cl)c2cc1C | 24.2 | 11.7
69 | CCOC(=O)c1c(C)n(Cc2ccccc2)c2c1cc1oc(=O)c(=O)n3cnc2c13 | 24.9 | 10.4
70 | O=C1C=Cc2ncccc2C1=O | 48.9 | –
71 | [CH3][Sn]1([CH3])[O]CC(COc2cc(Cl)c(Cl)cc2Cl)[O]1 (stereo unspecified) | > 100 | 89.1
72 | O=C(/C=C/c1ccccc1)CCC1C(=O)NC(=S)NC1=O | > 100 | –
73 | CC(=O)OC(=O)O/C=C\CCl | > 100 | –
74 | O=C(Nc1nc2ccccc2s1)c1cc(-c2ccc(F)cc2)n2nc(-c3ccccc3)cc2n1 | > 100 | 6.49
75 | CC(=O)c1c2c(cc3c1CC1(C3)Cc3cc4c(c(C(=O)O)c3C1)CCC4)CCC2 (stereo unspecified) | > 100 | –
76 | C/C(=N/O)c1ccc(Nc2cc(-n3ccnc3)c3ccccc3n2)cc1 | > 100 | 39.5
77 | Cc1ccc(/C=N/NS(=O)(=O)c2ccccc2)c(C)c1 | > 100 | –
78 | C#CCOCn1cnc2ncnc(N)c21 | > 100 | –
79 | Cc1noc(/N=C2\C=C(Nc3onc(C)c3C)C(=O)c3ccccc32)c1C | > 100 | –

These compounds were tested on SNB-75 CNS (assay: inhibition of tumour cell growth, NCI panel, 48 h).

Row | Structure (SMILES) | GI50 [µM] | TGI [µM]
80 | CN1CCN(c2ccc3nc(-c4ccc(OCCCCN5CCN(CCCCN6C(=O)c7cccc8cccc(c78)C6=O)CC5)cc4)[nH]c3c2)CC1 | 28.9 | > 100
81 | CC1=C(N2CC2)C(=O)c2ccccc2C1=O | – | 2.32
82 | O=S1(=O)c2ccccc2N=C(c2ccccc2Cl)CC1c1ccc(F)cc1 (stereo unspecified) | – | 47.8
83 | CC1=CC(=O)NP(=O)(C23CC4CC(CC(C4)C2)C3)N1 (stereo unspecified) | – | > 100
